The values below come from US20090068169A1, “2,4,6-triamino-s-triazine-based compounds which bind to the tail (fc) portion of immunoglobulins and their use” (priority 2004, published 2009).

In general, IC50 refers to the point on the concentration scale where inhibition reaches its midpoint. A high value points to weaker potency in that assay.

One experiment concerns the target T1, Fc portion of human IgG.
T1 construct: fused on or other part: horseradish peroxidase chemically conjugated to the IgG (detection label)
The experiment is described as follows: Competitive protein A binding ELISA. The following applies: for IC50: inhibition of binding of protein A to HRP-human IgG, assay in PBS; for binding activity, in words: refers to Table 1, bis-aminoanilino arrangement. The procedure:
The competitive protein A binding ELISA assay was performed on a 96-well plate MAXISORP® surface to enhance the binding of protein A to the bottom of the plate. The wells were coated with 100 μL of protein A (0.8 μg) and incubated overnight at 4° C. After incubation, unbound protein A was removed by three washes with phosphate buffer saline (PBS). The plate was then incubated with 100 μL/well of a 2% solution of bovine serum albumin (BSA) for 1 h at 37° C. to block non specific protein binding. After incubation, the plate was washed three times with PBS. 50 μL of compound or protein A, diluted in PBS or PBS-20% DMSO at appropriate concentration, were added to the wells followed by addition of 50 μL of peroxidase-conjugated human IgG (HRP-IgG). After 1 h incubation at 37° C., the plate was washed three times with PBS to remove unbound HRP-IgG. […] The plate was then read at 405 nm on a EL 800, universal microplate reader (Bio-Tek). Data was analyzed in Microsoft Excel and the concentration of compound which inhibits 50% binding of protein A (IC50) was calculated using Prism software.

For experiment [1], the system named is oxazolone-induced delayed-type hypersensitivity (DTH) in mice. The experiment is described as follows: Oxazolone-induced delayed-type hypersensitivity (DTH). Conditions: intravenous; for Activity (ear thickness inhibition) Second Challenge: second oxazolone challenge; for Activity (ear thickness inhibition) Second Challenge / Activity (ear thickness inhibition) First Challenge: n.s. = non significant effect; for inhibition of the inflammation after the second challenge of oxazolone: FIG. 2, second challenge; for Activity (ear thickness inhibition) First Challenge: first oxazolone challenge. It counts as in vivo. The procedure:
Compounds were tested for their ability to treat oxazolone-induced delayed-type hypersensitivity (DTH) in mice. On day 0, mice were sensitized with 100 μL of oxazolone in 5% acetone. On day 0, 1 and 2, mice were treated by intravenous administration of the vehicle (control) or methotrexate (MTX; positive control) or the compound at 50 mg/kg (compound 3) or 25 mg/kg (compound 1 or 10). Mice were challenged with an application of 50 μL of oxazolone on the surface of the right ear (first challenge, day 3; second challenge, day 10). Ear thickness was measured on day 4 to day 7, and on day 11 to 14. Redness and crust formation was also observed. Mice were sacrificed on day 14. TDTH (CD4) cells play an important role in regulating the intensity of the DTH response. Compounds may exert an inhibitory influence on the DTH response through its inhibition of T-cell activation and DNA, RNA and/or protein synthesis.

The test system is the same in experiment [2]. The experiment is described as above. The class given is in vivo. The following applies: per os; for Activity (ear thickness inhibition) First Challenge: first oxazolone challenge; for Activity (ear thickness inhibition) Second Challenge: second oxazolone challenge, n.s. = non significant effect.

Marks after values point to notes of the source that are not given here.

On Fc portion of human IgG, `Nc1cccc(Nc2nc(NCCO)nc(Nc3cccc(F)c3)n2)c1` [Compound 41] showed a concentration for half-maximal inhibition (IC50) of 36 nM. This counts as double-digit nanomolar.
At Fc portion of human IgG, `Nc1ccc(CNc2nc(N)nc(Nc3cccc(N)c3)n2)cc1` [Compound 17] returned a 50% inhibitory concentration (IC50) of 65 nM.
With `Nc1ccc(CCNc2nc(NCc3cccc(N)c3)nc(Nc3cccc(N)c3)n2)cc1` [Compound 10], the half-maximal inhibitory concentration (IC50) at Fc portion of human IgG came to 106 nM. In addition, the “Activity (ear thickness inhibition) Second Challenge” value in experiment [1] was “No effect”. In addition, in experiment [2], the “oral activity on DTH” value is listed as “oral activity” and the “Activity (ear thickness inhibition) First Challenge” value is on record as “No effect per os”.
Compound `NCCNc1nc(NCCc2ccc(N)cc2)nc(Nc2cccc(N)c2)n1` [Compound 5] displayed an IC50 on Fc portion of human IgG of 377 nM. Moreover, in experiment [2], the “oral activity on DTH” value is on record as “oral activity”, the “Activity (ear thickness inhibition) First Challenge” value is recorded as “↓ per os (p = 0.008)” and the “Activity (ear thickness inhibition) Second Challenge” value was “↓ (n.s.)”.
On to `COc1cccc(Nc2nc(Nc3cccc(N)c3)nc(Nc3cccc(OC)c3)n2)c1` [Compound 45], for which the IC50 at Fc portion of human IgG is 469 nM.
`Nc1ccc(CCNc2nc(NCCCCO)nc(Nc3cccc(N)c3)n2)cc1` [Compound 3] showed an IC50 on Fc portion of human IgG of 106 nM. In addition, the “inhibition of the inflammation after the second challenge of oxazolone” value in experiment [1] is recorded as “significant inhibition of the inflammation”. In experiment [2], the “oral activity on DTH” value is “oral activity”, the “Activity (ear thickness inhibition) First Challenge” value was “↓ per os (p = 0.03)” and the “Activity (ear thickness inhibition) Second Challenge” value is “↓ (n.s.)”.
As to `Nc1cccc(Nc2nc(NCCO)nc(Nc3ccc(Cl)cc3)n2)c1` [Compound 44], the IC50 on Fc portion of human IgG amounted to 56 nM.
As for `NCCCCCCNc1nc(Nc2cccc(N)c2)nc(Nc2cccc(N)c2)n1` [Compound 36], the IC50 at Fc portion of human IgG was 68 nM. This IC50 and that of the compound before are within 1.5-fold of each other.
For `Nc1cccc(Nc2nc(NCCCCCCO)nc(Nc3cccc(N)c3)n2)c1` [Compound 19], the IC50 at Fc portion of human IgG came out at 15 nM. Moreover, in experiment [1], the “Activity (ear thickness inhibition) First Challenge” value is recorded as “↓ (n.s.)” and the “Activity (ear thickness inhibition) Second Challenge” value was “No effect”.
Consider `Nc1cccc(Nc2nc(NCCO)nc(Nc3cccc(N)c3)n2)c1` [Compound 34], for which the IC50 on Fc portion of human IgG turned out to be 42 nM.
`Nc1cccc(Nc2nc(NCC3CC3)nc(Nc3cccc(N)c3)n2)c1` [Compound 31]: at Fc portion of human IgG, the IC50 was found to be 38 nM. For the same compound, the “Activity (ear thickness inhibition) Second Challenge” value in experiment [1] was “↓ (n.s.)”.
The compound `Nc1cccc(Nc2nc(NCCO)nc(Nc3ccc(F)cc3)n2)c1` [Compound 28] returned an IC50 on Fc portion of human IgG of 62 nM. In addition, the “Activity (ear thickness inhibition) First Challenge” value in experiment [1] is on record as “↓ (n.s.)”.
In turn, `Nc1ccc(CNc2nc(NCCCCCCO)nc(Nc3cccc(N)c3)n2)cc1` [Compound 2] returned an IC50 at Fc portion of human IgG of 148 nM. For the same compound, in experiment [1], the “Activity (ear thickness inhibition) Second Challenge” value was “No effect”.
`Nc1cccc(Nc2nc(NCCO)nc(NCc3ccc(F)cc3)n2)c1` [Compound 42] showed a half-maximal inhibitory concentration (IC50) at Fc portion of human IgG of 39 nM. That is a double-digit nanomolar value.
Consider `Nc1ccc(CNc2nc(Nc3cccc(N)c3)nc(Nc3cccc(N)c3)n2)cc1` [Compound 13], for which, on Fc portion of human IgG, the IC50 turned out to be 1 nM and the “binding activity, in words” value is recorded as “potent binding activity”.
At Fc portion of human IgG, `Nc1cccc(CNc2nc(N)nc(Nc3cccc(N)c3)n2)c1` [Compound 16] gave a half-inhibitory concentration (IC50) of 159 nM. Moreover, in experiment [1], the “Activity (ear thickness inhibition) First Challenge” value is on record as “No effect” and the “Activity (ear thickness inhibition) Second Challenge” value is given as “No effect”.
In turn, `COc1ccc(Nc2nc(N)nc(Nc3cccc(N)c3)n2)cc1` [Compound 27] registered an IC50 at Fc portion of human IgG of 292 nM.
The compound `COc1ccc(Nc2nc(NCCO)nc(Nc3cccc(N)c3)n2)cc1` [Compound 23] had a 50% inhibitory concentration (IC50) at Fc portion of human IgG of 86 nM. Against the preceding compound, the IC50 is about 3.4-fold lower.
For `Nc1ccc(CCNc2nc(NCCCCCCO)nc(Nc3cccc(N)c3)n2)cc1` [Compound 1], at Fc portion of human IgG, the half-inhibitory concentration (IC50) was found to be 93 nM. Further, in experiment [1], the “inhibition of the inflammation after the second challenge of oxazolone” value is “significant inhibition of the inflammation” and the “Activity (ear thickness inhibition) First Challenge” value is “No effect”. In experiment [2], the “oral activity on DTH” value is recorded as “oral activity”, the “Activity (ear thickness inhibition) First Challenge” value was “↓ per os (p = 0.003)” and the “Activity (ear thickness inhibition) Second Challenge” value is recorded as “↓ (n.s.)*”.
On to `Nc1ccc(CCNc2nc(Nc3cccc(N)c3)nc(NC3CCC3)n2)cc1` [Compound 8], for which the IC50 at Fc portion of human IgG amounted to 53 nM. That is a double-digit nanomolar value.
On Fc portion of human IgG, `CN(C[C@H](O)[C@@H](O)[C@H](O)[C@H](O)CO)c1nc(Nc2cccc(N)c2)nc(Nc2cccc(N)c2)n1` [Compound 35] displayed a half-inhibitory concentration (IC50) of 37 nM. Also, the “Activity (ear thickness inhibition) Second Challenge” value in experiment [1] was “No effect”.
For the compound `Nc1cccc(CCNc2nc(NCC3CC3)nc(Nc3cccc(N)c3)n2)c1` [Compound 30], at Fc portion of human IgG, the concentration for half-maximal inhibition (IC50) is 88 nM. This lies in the double-digit nanomolar range.
`COc1cccc(Nc2nc(NCCN)nc(Nc3cccc(N)c3)n2)c1` [Compound 14] returned an IC50 on Fc portion of human IgG of 306 nM.
In the case of `Nc1cccc(CNc2nc(Nc3cccc(N)c3)nc(Nc3cccc(N)c3)n2)c1` [Compound 12], on Fc portion of human IgG, the half-maximal inhibitory concentration (IC50) was 3 nM and the “binding activity, in words” value is on record as “potent binding activity”.
As to `Nc1cccc(Nc2nc(N)nc(NCc3ccccc3N)n2)c1` [Compound 18], the IC50 at Fc portion of human IgG worked out at 97 nM.
With `COc1ccc(Nc2nc(Nc3cccc(N)c3)nc(NC3CC3)n2)cc1` [Compound 26], the 50% inhibitory concentration (IC50) on Fc portion of human IgG was determined as 126 nM.
Regarding `Nc1cccc(Nc2nc(Nc3cccc(N)c3)nc(NC3CC3)n2)c1` [Compound 32], on Fc portion of human IgG, the IC50 was 38 nM.
For `Nc1cccc(Nc2nc(NCCc3ccccc3N)nc(NCC3CC3)n2)c1` [Compound 38], the 50% inhibitory concentration (IC50) at Fc portion of human IgG came out at 312 nM.
`Nc1cccc(Nc2nc(N)nc(Nc3cccc(N)c3)n2)c1` [Compound 33] displayed a concentration for half-maximal inhibition (IC50) on Fc portion of human IgG of 170 nM.
For `Nc1ccc(CCNc2nc(Nc3cccc(N)c3)nc(NC3CCCC3)n2)cc1` [Compound 9], the IC50 at Fc portion of human IgG was found to be 131 nM. Also, the “Activity (ear thickness inhibition) Second Challenge” value in experiment [1] is reported as “No effect”.
Compound `COc1ccc(Nc2nc(NCC3CC3)nc(Nc3cccc(N)c3)n2)cc1` [Compound 25] displayed an IC50 at Fc portion of human IgG of 75 nM. This counts as double-digit nanomolar.
At Fc portion of human IgG, `Nc1ccc(CCNc2nc(NCc3ccc(N)cc3)nc(Nc3cccc(N)c3)n2)cc1` [Compound 11] came in with a half-maximal inhibitory concentration (IC50) of 85 nM.
Take `Nc1cccc(Nc2nc(NCCO)nc(NCc3cccc(F)c3)n2)c1` [Compound 29]: the IC50 on Fc portion of human IgG was 222 nM. This IC50 lies about 2.6-fold higher than the previous one.
In the case of `COc1cccc(Nc2nc(NCC3CC3)nc(Nc3cccc(N)c3)n2)c1` [Compound 24], the IC50 on Fc portion of human IgG was determined as 243 nM.
As to `COc1cccc(Nc2nc(NCCO)nc(Nc3cccc(N)c3)n2)c1` [Compound 22], on Fc portion of human IgG, the IC50 is 63 nM.
On Fc portion of human IgG, “Protein A (Control): Staphylococcal protein A, cell-surface bacterial protein which binds the Fc (tail) portion of most antibodies [reference compound]” showed an IC50 of 187 nM.
On Fc portion of human IgG, `NCCNc1nc(Nc2cccc(N)c2)nc(Nc2cccc(N)c2)n1` [Compound 21] registered an IC50 of 114 nM.
`Nc1cccc(Nc2nc(NCCO)nc(NCc3ccccc3F)n2)c1` [Compound 43]: the half-maximal inhibitory concentration (IC50) on Fc portion of human IgG came out at 86 nM.
As to `COc1ccc(Nc2nc(NCCN)nc(Nc3cccc(N)c3)n2)cc1` [Compound 15], on Fc portion of human IgG, the IC50 was 415 nM.
On Fc portion of human IgG, `NCCCCCCNc1nc(NCCc2ccc(N)cc2)nc(Nc2cccc(N)c2)n1` [Compound 4] registered an IC50 of 300 nM.
`Nc1ccc(CCNc2nc(Nc3cccc(N)c3)nc(Nc3cccc(N)c3)n2)cc1` [Compound 20] had a half-maximal inhibitory concentration (IC50) on Fc portion of human IgG of 65 nM. This IC50 lies about 4.6-fold lower than the previous one.
Still for that read-out and setting: for `Nc1cccc(Nc2nc(NCCCCO)nc(Nc3cccc(N)c3)n2)c1` [Compound 39] the value was 40 nM.
